Data from patent publication US5484780A, “Angiotensin II antagonists” (Eli Lilly and Company, priority 1994, dated 1996).
Where “and” joins values, the source holds several entries; their conditions need not be identical. Equal values may be shown once.

What follows are molecules tested against T1, angiotensin-induced vasoconstriction (rabbit aorta) (Oryctolagus cuniculus, UniProt P34976) (assay: Rabbit Aorta Test System: antagonism of angiotensin II contraction of aortic rings). Settings: contraction to AII 10^-10 to 10^-7 M, 30 minutes incubation with compound; pA2 = -log KB.
T1 construct: The thoracic aortas were removed and cleaned of excess fat and connective tissue; from tissue; host or cells: thoracic aorta rings of New Zealand white rabbits (animals from Hazelton)
T1 sequence (P34976 1-359): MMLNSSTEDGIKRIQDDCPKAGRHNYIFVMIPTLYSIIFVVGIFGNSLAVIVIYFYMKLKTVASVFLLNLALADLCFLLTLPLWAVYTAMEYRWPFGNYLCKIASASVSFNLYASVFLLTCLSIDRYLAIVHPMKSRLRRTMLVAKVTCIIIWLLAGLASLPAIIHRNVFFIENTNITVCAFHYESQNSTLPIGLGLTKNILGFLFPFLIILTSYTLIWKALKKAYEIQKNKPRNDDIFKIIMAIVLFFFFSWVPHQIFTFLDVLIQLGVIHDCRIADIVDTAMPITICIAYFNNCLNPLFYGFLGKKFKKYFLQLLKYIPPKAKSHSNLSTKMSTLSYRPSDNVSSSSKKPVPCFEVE
Parameters: species or system New Zealand white rabbits
Method: As previously discussed, the compounds of Formula I are potent effective antagonists of angiotensin II. The ability of representative compounds of Formula I to block angiotensin II receptor binding was determined using the adrenal glomerulosa assay. The ability to antagonize angiotensin-induced vasoconstriction was evaluated in the rabbit aorta test system.
New Zealand white rabbits (Hazelton, 2-3 kg) were sacrificed by cervical dislocation. The thoracic aortas were removed and cleaned of excess fat and connective tissue. Rings of tissue (3 mm wide) were mounted in 10 ml tissue baths between 2 L-shaped stainless steel hooks. The lower hook was attached to a stationary rod. The upper hook was attached to a force displacement transducer (Grass model FT.03). The bath chambers were maintained at 37° C., aerated with 95% 02 /5% C02, and contained physiological solution of the following composition (mM): NaCl, 117; glucose, 5.6; NaH2 PO4, 1.0; MgS04, 0.7; KCl, 5.2; CaCl2, 1.8; NaHCO3, 26; and phentolamine HCl, 0.003.
Rings were equilibrated for 1 hour with 2 g of tension. During the equilibration period, the tissues were washed by overflow every 15 minutes. Rings were then exposed to 10^-8 M angiotensin II (AII) and were allowed to contract until a steady state was reached. Tissues were then washed every 15 minutes for 1 hour. This was repeated every hour until the AII response stabilized. A cumulative concentration response curve to AII (10^-10 to 10^-7 M) was then obtained. At the conclusion of the concentration response curve, tissues were washed every 2 minutes until baseline tension was reached, then every 15 minutes for 30 minutes. Compounds were added in a volume of 10 μl DMSO and allowed to incubate for 30 minutes before repeating the concentration response curve to AII. Contractions to AII were expressed as a percent of the maximum contraction obtained in the control curve (the first AII concentration response curve). EC50 's (concentration that contracted the tissues to 1/2 the control maximum) for each curve were calculated using a 4 parameter logistics model (NonLin, SAS Institute). Potency data for each compound tested are expressed as the pA2 (defined as-log KB, where KB =[molar concentration of antagonist]/[(EC50 AII with antagonist/EC50 AII without antagonist)-1]).

| Kb | Rabbit Aorta (pA2) | SMILES |
| --- | --- | --- |
| 31.6 nM and 126 nM | – | CCCCC(C(=O)N1C[C@@H](Oc2ccccc2)C[C@H]1C(=O)O)n1cnc(NC(=O)c2ccccc2S(=O)(=O)O)c1 (single isomer, unassigned) [Example 14, 1-[1-oxo-2-[4-(2-sulfobenzoyl)amino-1H-imidazol-1-yl]hexyl]-4-cis-phenoxy-L-proline] |
| 10 nM | – | CCCCCC[C@H](C(=O)N1C[C@@H](Oc2ccc(OCCCC)cc2)C[C@H]1C(=O)O)n1cnc(NC(=O)c2cccc(O)c2C(=O)O)c1 [Example 84] |
| 10 nM | – | CCCCCC[C@H](C(=O)N1C[C@@H](Oc2ccc(OC(F)(F)F)cc2)C[C@H]1C(=O)O)n1cnc(NC(=O)c2ccccc2S(=O)(=O)O)c1 [Example 53] |
| 63.1 nM and 126 nM | – | CCCCCC(C(=O)N1C[C@@H](Oc2ccccc2)C[C@H]1C(=O)O)n1cnc(NC(=O)c2ccccc2S(=O)(=O)O)c1 (stereo partly drawn) [Example 13, 1-[1-oxo-2-[4-(2-sulfobenzoyl)amino-1H-imidazol-1-yl]heptyl]-4-cis-phenoxy-L-proline] |
| 6.31 nM | – | CCCCCC[C@H](C(=O)N1C[C@@H](Oc2ccc3c(c2)CCC3)C[C@H]1C(=O)O)n1cnc(NC(=O)c2cccc(O)c2C(=O)O)c1 [Example 88] |
| 5.01 nM | – | CCCCCC[C@H](C(=O)N1C[C@@H](Oc2ccc(P(=O)(O)O)cc2)C[C@H]1C(=O)O)n1cnc(NC(=O)c2ccccc2S(=O)(=O)O)c1 [Example 44] |
| 50.1 nM | – | O=C(Nc1cn(C(CCCCC(F)(F)F)C(=O)N2C[C@@H](Oc3ccccc3)C[C@H]2C(=O)O)cn1)c1ccccc1S(=O)(=O)O (stereo partly drawn) [Example 16, 1-[1-Oxo-2-[4-(2-sulfobenzoyl)amino-1H-imidazol-1-yl]-7,7,7-trifluoroheptyl]-4-cis-phenoxy-L-proline] |
| 31.6 nM | – | CCCCCC[C@H](C(=O)N1C[C@@H](Oc2ccc(OC(C)(C)C)cc2)C[C@H]1C(=O)O)n1cnc(NC(=O)c2ccccc2-c2nn[nH]n2)c1 [Example 76] |
| 25.1 nM | – | CCCCCC[C@H](C(=O)N1C[C@@H](Oc2ccc3oc4ccccc4c3c2)C[C@H]1C(=O)O)n1cnc(NC(=O)c2ccccc2S(=O)(=O)O)c1 [Example 71] |
| 1 nM | – | CCCCCC[C@H](C(=O)N1C[C@@H](Oc2ccc(OC)cc2)C[C@H]1C(=O)O)n1cnc(NC(=O)c2ccccc2-c2nn[nH]n2)c1 [Example 75] |
| 2000 nM | – | CCCCCC[C@H](C(=O)N1C[C@@H](Oc2cccc3ccccc23)C[C@H]1C(=O)O)n1cnc(NC(=O)c2ccccc2S(=O)(=O)O)c1 [Example 64] |
| – | 7.5 | CCCCCC[C@H](C(=O)N1C[C@@H](Oc2ccc(C(F)(F)F)cc2)C[C@H]1C(=O)O)n1cnc(NC(=O)c2ccccc2S(=O)(=O)O)c1 [Example 29] |
| 0.501 nM | – | CCCCCC[C@H](C(=O)N1C[C@@H](Oc2ccc(S(=O)(=O)NC)cc2)C[C@H]1C(=O)O)n1cnc(NC(=O)c2ccccc2S(=O)(=O)O)c1 [Example 40] |
| 0.631 nM | – | CCCCCC[C@H](C(=O)N1C[C@@H](Oc2ccc3c(c2)OCO3)C[C@H]1C(=O)O)n1cnc(NC(=O)c2ccccc2S(=O)(=O)O)c1 [Example 59] |
| 3.16 nM | – | CCCCCC[C@H](C(=O)N1C[C@@H](Oc2ccc(C(N)=O)cc2)C[C@H]1C(=O)O)n1cnc(NC(=O)c2ccccc2S(=O)(=O)O)c1 [Example 34] |
| 12.6 nM | – | CCCCCC[C@H](C(=O)N1C[C@@H](Oc2ccc(OCC(C)C)cc2)C[C@H]1C(=O)O)n1cnc(NC(=O)c2ccccc2S(=O)(=O)O)c1 [Example 51] |
| 15.8 nM | – | CCCCCC[C@H](C(=O)N1C[C@@H](Oc2ccc(OC)c(OC)c2)C[C@H]1C(=O)O)n1cnc(NC(=O)c2ccccc2S(=O)(=O)O)c1 [Example 60] |
| 2.51 nM | – | CCCCCC[C@H](C(=O)N1C[C@@H](Oc2ccc(C3CCCC3)cc2)C[C@H]1C(=O)O)n1cnc(NC(=O)c2ccccc2S(=O)(=O)O)c1 [Example 26] |
| 100 nM | – | CCCCCC[C@H](C(=O)N1C[C@@H](Oc2ccon2)C[C@H]1C(=O)O)n1cnc(NC(=O)c2ccccc2S(=O)(=O)O)c1 [Example 74] |

| Kb | Rabbit Aorta (pA2) | SMILES |
| --- | --- | --- |
| 15.8 nM | – | CCCCCCC(C(=O)N1C[C@@H](Oc2cccnc2)C[C@H]1C(=O)O)n1cnc(NC(=O)c2ccccc2S(=O)(=O)O)c1 (stereo partly drawn) [Example 17, 1-[1-Oxo-2-[4-(2-sulfobenzoyl)amino-1H-imidazol-1-yl]octyl]4-cis-(3-pyridyloxy)-L-proline] |
| 0.631 nM | – | CCCCCC[C@H](C(=O)N1C[C@@H](Oc2ccc(OCC)cc2)C[C@H]1C(=O)O)n1cnc(NC(=O)c2ccccc2S(=O)(=O)O)c1 [Example 48] |
| – | 6.3 | CCCCCCC(C(=O)N1CCNC1=S)n1cnc(NC(=O)c2ccccc2S(=O)(=O)O)c1 (stereo not drawn) [Example 6, 2-[[[1-[1-[(2-thioxo-1-imidazolidinyl)carbonyl]-heptyl]-1H-imidazol-4-yl]amino]carbonyl]benzenesulfonic acid] |
| 31.6 nM | – | CCCCCC[C@H](C(=O)N1C[C@@H](Oc2ccc(OCC3CCCCC3)cc2)C[C@H]1C(=O)O)n1cnc(NC(=O)c2ccccc2S(=O)(=O)O)c1 [Example 56] |
| 25.1 nM | – | CCCCCC[C@H](C(=O)N1C[C@@H](Oc2ccc(C(C)C)cc2)C[C@H]1C(=O)O)n1cnc(NC(=O)c2ccccc2S(=O)(=O)O)c1 [Example 24] |
| 0.251 nM | – | CCCCCC[C@H](C(=O)N1C[C@@H](Oc2ccc(-n3cncn3)cc2)C[C@H]1C(=O)O)n1cnc(NC(=O)c2ccccc2S(=O)(=O)O)c1 [Example 45] |
| 1.26 nM | – | CCCCCC[C@H](C(=O)N1C[C@@H](Oc2ccc(S(C)(=O)=O)cc2)C[C@H]1C(=O)O)n1cnc(NC(=O)c2ccccc2S(=O)(=O)O)c1 [Example 32] |
| 2 nM | – | CCCCCC[C@H](C(=O)N1C[C@@H](Oc2ccc(OCCCC)cc2)C[C@H]1C(=O)O)n1cnc(NC(=O)c2ccccc2S(=O)(=O)O)c1 [Example 50] |
| – | 8.9 | CCCCCC[C@H](C(=O)N1C[C@@H](Oc2ccc([S+](C)[O-])cc2)C[C@H]1C(=O)O)n1cnc(NC(=O)c2ccccc2S(=O)(=O)O)c1 (stereo partly drawn) [Example 31] |
| 10 nM | – | CCCCCC[C@H](C(=O)N1C[C@@H](Oc2ccc(-c3ccccc3)cc2)C[C@H]1C(=O)O)n1cnc(NC(=O)c2ccccc2S(=O)(=O)O)c1 [Example 27] |
| – | 8.9 | CCCCCC[C@H](C(=O)N1C[C@@H](Oc2ccc(NS(=O)(=O)C(F)(F)F)cc2)C[C@H]1C(=O)O)n1cnc(NC(=O)c2ccccc2S(=O)(=O)O)c1 [Example 93, (R)-1-[1-oxo-2-[4-(2-sulfobenzoyl)amino-1H-imidazol-1-yl]octyl]-4-(cis)-((4-N-triflouromethanesulfonamido)-phenoxy)-L-proline] |
| – | 10.1 | CCCCCCC(C(=O)N1C[C@@H](Oc2ccc(CP(=O)(O)O)cc2)C[C@H]1C(=O)O)n1cnc(NC(=O)c2ccccc2S(=O)(=O)O)c1 (stereo partly drawn) [Example 91] |
| 0.631 nM | – | CCCCCC[C@H](C(=O)N1C[C@@H](Oc2ccc(SC)cc2)C[C@H]1C(=O)O)n1cnc(NC(=O)c2ccccc2S(=O)(=O)O)c1 [Example 30] |
| 1 nM | – | CCCCCC[C@H](C(=O)N1C[C@@H](Oc2ccc(C(=O)O)cc2)C[C@H]1C(=O)O)n1cnc(NC(=O)c2ccccc2S(=O)(=O)O)c1 [Example 33] |
| 1.58 nM | – | CCCCCC[C@H](C(=O)N1C[C@@H](Oc2ccc(CC)cc2)C[C@H]1C(=O)O)n1cnc(NC(=O)c2ccccc2S(=O)(=O)O)c1 [Example 23] |
| 2.51 nM | – | CCCCCC[C@H](C(=O)N1C[C@@H](Oc2ccc(OC(C)C)cc2)C[C@H]1C(=O)O)n1cnc(NC(=O)c2ccccc2S(=O)(=O)O)c1 [Example 49] |
| 0.316 nM | – | CCCCCC[C@H](C(=O)N1C[C@@H](Oc2ccc(OC)cc2)C[C@H]1C(=O)O)n1cnc(NC(=O)c2cccc(O)c2C(=O)O)c1 [Example 82] |
| 3.98 nM | – | CCCCCC[C@H](C(=O)N1C[C@@H](Oc2ccc(OC(C)(C)C)cc2)C[C@H]1C(=O)O)n1cnc(NC(=O)c2ccccc2S(=O)(=O)O)c1 [Example 52] |
| 3.16 nM | – | CCCCCC[C@H](C(=O)N1C[C@@H](Oc2ccc3ccccc3c2)C[C@H]1C(=O)O)n1cnc(NC(=O)c2ccccc2S(=O)(=O)O)c1 [Example 61] |

| SMILES | Kb | Rabbit Aorta (pA2) |
| --- | --- | --- |
| CCCCCC[C@H](C(=O)N1C[C@@H](Oc2ccc(OP(=O)(O)O)cc2)C[C@H]1C(=O)O)n1cnc(NC(=O)c2ccccc2S(=O)(=O)O)c1 [Example 43] | 0.794 nM | – |
